# PubChem BioAssay AID2060484 (Molecular Pharmacology Branch, DTP, NCI, 2025)
# Tested on: SUM149PT spheroids with HUVEC/MSC, viability
# Test: Anticancer human tumor SUM149PT cell line growth inhibition [GQUAD];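 also: spheroids exposed to drugs for seven days before readout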;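 as to viability, T/C: percent viability relative to DMSO vehicle control taken as 100%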
# Details: for IC50: curve of first compound; for viability, T/C: stronger effect = lower value
# Outline: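 Tumor cells were grown as complex spheroids with HUVEC endothelial cells and mesenchymal stem cells as stroma. G-quadruplex stabilizers were combined with targeted agents over half-log dilutions from near the clinical Cmax, or from 10 microM.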
# [1] = second compound 0.0316 µM, first compound 0.0316 µM
# [2] = second compound 0.0316 µM, first compound 0.1 µM
# [3] = second compound 0.0316 µM, first compound 0.316 µM
# [4] = second compound 0.0316 µM, first compound 1 µM
# [5] = second compound 0.0316 µM, first compound 3.16 µM
# [6] = second compound 0.0316 µM, first compound 10 µM
# [7] = second compound 0.1 µM, first compound 0.0316 µM
# [8] = second compound 0.1 µM, first compound 0.1 µM
# [9] = second compound 0.1 µM, first compound 0.316 µM
# [10] = second compound 0.1 µM, first compound 1 µM
# [11] = second compound 0.1 µM, first compound 3.16 µM
# [12] = second compound 0.1 µM, first compound 10 µM
# [13] = second compound 0.316 µM, first compound 0.0316 µM
# [14] = second compound 0.316 µM, first compound 0.1 µM
# [15] = second compound 0.316 µM, first compound 0.316 µM
# [16] = second compound 0.316 µM, first compound 1 µM
# [17] = second compound 0.316 µM, first compound 3.16 µM
# [18] = second compound 0.316 µM, first compound 10 µM
# [19] = second compound 1 µM, first compound 0.0316 µM
# [20] = second compound 1 µM, first compound 0.1 µM
# [21] = second compound 1 µM, first compound 0.316 µM
# [22] = second compound 1 µM, first compound 1 µM
# [23] = second compound 1 µM, first compound 3.16 µM
# [24] = second compound 1 µM, first compound 10 µM
# [25] = second compound 3.16 µM, first compound 0.0316 µM
# [26] = second compound 3.16 µM, first compound 0.1 µM
# [27] = second compound 3.16 µM, first compound 0.316 µM
# [28] = second compound 3.16 µM, first compound 1 µM
# [29] = second compound 3.16 µM, first compound 3.16 µM
# [30] = second compound 3.16 µM, first compound 10 µM
# [31] = second compound 10 µM, first compound 0.0316 µM
# [32] = second compound 10 µM, first compound 0.1 µM
# [33] = second compound 10 µM, first compound 0.316 µM
# [34] = second compound 10 µM, first compound 1 µM
# [35] = second compound 10 µM, first compound 3.16 µM
# [36] = second compound 10 µM, first compound 10 µM
structure (smiles),measurement,setting,value
CC1COCCN1c1cc(-c2ccnn2C)c2ccnc(-c3ccn[nH]3)c2n1 (stereo unspecified) + Cc1[nH]c2ccc(F)cc2c1-c1nc2c3cccnc3c3ncccc3c2[nH]1,IC50,second compound 0.0316 µM,89.1 nM
same,IC50,second compound 0.1 µM,95.5 nM
same,IC50,second compound 0.316 µM,107 nM
same,IC50,second compound 1 µM,120 nM
same,IC50,second compound 3.16 µM,97.2 nM
same,IC50,second compound 10 µM,93.9 nM
same,"viability, T/C",[1],90.7%
same,"viability, T/C",[2],45.6%
same,"viability, T/C",[3],25.8%
same,"viability, T/C",[4],26.4%
same,"viability, T/C",[5],27%
same,"viability, T/C",[6],26.3%
same,"viability, T/C",[7],82.7%
same,"viability, T/C",[8],48.6%
same,"viability, T/C",[9],25.1%
same,"viability, T/C",[10],21.8%
same,"viability, T/C",[11],28.6%
same,"viability, T/C",[12],25.7%
same,"viability, T/C",[13],95.1%
same,"viability, T/C",[14],51.4%
same,"viability, T/C",[15],23.3%
same,"viability, T/C",[16],23.9%
same,"viability, T/C",[17],25.8%
same,"viability, T/C",[18],25.3%
same,"viability, T/C",[19],92.4%
same,"viability, T/C",[20],54.5%
same,"viability, T/C",[21],26.4%
same,"viability, T/C",[22],26.4%
same,"viability, T/C",[23],24.8%
same,"viability, T/C",[24],26.6%
same,"viability, T/C",[25],98.2%
same,"viability, T/C",[26],48.8%
same,"viability, T/C",[27],25.4%
same,"viability, T/C",[28],26.2%
same,"viability, T/C",[29],25.7%
same,"viability, T/C",[30],22.5%
same,"viability, T/C",[31],92.7%
same,"viability, T/C",[32],47.6%
same,"viability, T/C",[33],24.2%
same,"viability, T/C",[34],27.4%
same,"viability, T/C",[35],23%
same,"viability, T/C",[36],24.1%
COc1ncnc(C2CC2)c1-c1ncc2cnn(Cc3ccc(-c4nc(C(F)(F)F)cn4C(C)C)cc3)c2n1 + CN(C)c1ccc(Nc2c3ccc(NC(=O)CCN4CCCC4)cc3nc3cc(NC(=O)CCN4CCCC4)ccc23)cc1,IC50,second compound 0.0316 µM,> 10000 nM
same,IC50,second compound 0.1 µM,> 10000 nM
same,IC50,second compound 0.316 µM,> 10000 nM
same,IC50,second compound 1 µM,> 10000 nM
same,IC50,second compound 3.16 µM,> 10000 nM
same,IC50,second compound 10 µM,8650 nM
same,"viability, T/C",[1],101%
same,"viability, T/C",[2],91.8%
same,"viability, T/C",[3],84.1%
same,"viability, T/C",[4],97.1%
same,"viability, T/C",[5],89.8%
same,"viability, T/C",[6],98.6%
same,"viability, T/C",[7],94.8%
same,"viability, T/C",[8],83.2%
same,"viability, T/C",[9],88.7%
same,"viability, T/C",[10],80.2%
same,"viability, T/C",[11],93.4%
same,"viability, T/C",[12],90.5%
same,"viability, T/C",[13],90.5%
same,"viability, T/C",[14],90.5%
same,"viability, T/C",[15],75.7%
same,"viability, T/C",[16],74.1%
same,"viability, T/C",[17],88%
same,"viability, T/C",[18],89.1%
same,"viability, T/C",[19],79%
same,"viability, T/C",[20],88.3%
same,"viability, T/C",[21],83.5%
same,"viability, T/C",[22],67.9%
same,"viability, T/C",[23],64.2%
same,"viability, T/C",[24],75.5%
same,"viability, T/C",[25],82.6%
same,"viability, T/C",[26],77.8%
same,"viability, T/C",[27],65.1%
same,"viability, T/C",[28],74.1%
same,"viability, T/C",[29],72.1%
same,"viability, T/C",[30],66.9%
same,"viability, T/C",[31],84.1%
same,"viability, T/C",[32],69%
same,"viability, T/C",[33],70.5%
same,"viability, T/C",[34],71.8%
same,"viability, T/C",[35],71.8%
same,"viability, T/C",[36],46.9%
CC(=O)O[C@H]1C(=O)[C@@]2(C)[C@H]([C@H](OC(=O)c3ccccc3)[C@]3(O)C[C@H](OC(=O)[C@H](O)[C@@H](NC(=O)c4ccccc4)c4ccccc4)C(C)=C1C3(C)C)[C@]1(OC(C)=O)CO[C@@H]1C[C@@H]2O + Cc1[nH]c2ccc(F)cc2c1-c1nc2c3cccnc3c3ncccc3c2[nH]1,IC50,second compound 0.0316 µM,< 31.6 nM
same,IC50,second compound 0.1 µM,< 31.6 nM
same,IC50,second compound 0.316 µM,< 31.6 nM
same,IC50,second compound 1 µM,< 31.6 nM
same,IC50,second compound 3.16 µM,< 31.6 nM
same,IC50,second compound 10 µM,< 31.6 nM
same,"viability, T/C",[1],31.7%
same,"viability, T/C",[2],25.7%
same,"viability, T/C",[3],21.3%
same,"viability, T/C",[4],19.2%
same,"viability, T/C",[5],19%
same,"viability, T/C",[6],23.1%
same,"viability, T/C",[7],34.9%
same,"viability, T/C",[8],24.9%
same,"viability, T/C",[9],22.7%
same,"viability, T/C",[10],19.7%
same,"viability, T/C",[11],19.3%
same,"viability, T/C",[12],25.8%
same,"viability, T/C",[13],32.2%
same,"viability, T/C",[14],25.7%
same,"viability, T/C",[15],24.2%
same,"viability, T/C",[16],18.9%
same,"viability, T/C",[17],20.8%
same,"viability, T/C",[18],26.5%
same,"viability, T/C",[19],30.2%
same,"viability, T/C",[20],27.2%
same,"viability, T/C",[21],23.1%
same,"viability, T/C",[22],17.3%
same,"viability, T/C",[23],21.5%
same,"viability, T/C",[24],26.6%
same,"viability, T/C",[25],29.8%
same,"viability, T/C",[26],28.6%
same,"viability, T/C",[27],21.5%
same,"viability, T/C",[28],18%
same,"viability, T/C",[29],20.5%
same,"viability, T/C",[30],22.9%
same,"viability, T/C",[31],28.5%
same,"viability, T/C",[32],24.9%
same,"viability, T/C",[33],20.2%
same,"viability, T/C",[34],20.7%
same,"viability, T/C",[35],22.3%
same,"viability, T/C",[36],23.1%
